Reference: PubChem BioAssay AID504726 (Broad Institute, 2011)
Active and inactive are the calls of the source.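 Rule for the calls: active = fitted half-maximal concentration for a cytotoxic signal drop no higher than ten times the top valid dose tested; inconclusive = flat curve between -70 and -30 percent, or an unreliable fit; inactive = flat within 30 percent, signal rise, or potency beyond limit.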

Assay: HeLa cell cytotoxicity, dose response, cytotoxicity control, 24 h, cherry-picked samples (AID 504726);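 note: 0% = DMSO neutral controls and -100% = mitoxantrone positive controls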
Conditions: HeLa viability, CellTiter-Glo ATP luminescence, 24 h; at 35 µM (top of the series)

Compound	activity change, negative = cytotoxicity
COc1ccc(Cl)cc1C(=O)NNC(=O)c1cc2ccccc2o1	-3.35% (inactive)
O=C1CCCC2=C1C(c1ccc(O)c(O)c1)Nc1ccc3ncccc3c12 (stereo not drawn)	-1.08% (inactive)
O=C(O)C1(c2ccccc2)CCN(S(=O)(=O)c2ccc(Cl)s2)CC1	-1.76% (inactive)
C=CCN1C(=O)/C(=c2\sc3nc(=O)c(Cc4ccccc4Cl)nn3c2=O)c2ccccc21	-9.87% (inactive)
O=c1c2c(nc3cc(-c4ccc(F)cc4)[nH]n13)CCC2	-13.7% (inactive)
CC(C)(C)OC(=O)N1CCC[C@H]1c1nnc(SCc2cccc(Cl)c2)o1	-8.06% (inactive)
O=C(O)C1C2C=CC(CC2)C1C(=O)O (stereo not drawn)	-1.75% (inactive)
O=C(COc1cccc(F)c1)Nc1nc(-c2cccnc2)cs1	-21.4% (inactive)
O=C(Cn1c2ccccc2c2nc3n(c(=O)c21)CCS3)Nc1ccccc1C(F)(F)F	-2.68% (inactive)
Cc1ccc(OCC(=O)NC(=S)Nc2cccc(NC(=O)c3ccc(Cl)cc3Cl)c2)cc1	-4.71% (inactive)
O=C(O)C(c1ccccc1)N1C(=O)/C(=C\c2ccc(-c3cccc(Cl)c3)o2)SC1=S (stereo not drawn)	-2.5% (inactive)
COc1[nH]c(/N=C/c2ccccc2)c(C#N)c1C#N	-1.43% (inactive)
O=C1c2ccccc2C(Nc2ccc3c(c2)OCCO3)N1Cc1ccc2c(c1)OCO2 (stereo not drawn)	-13.3% (inactive)
Cc1ccc(S(=O)(=O)/N=C/c2ccc(N(C)C)cc2)cc1	2.12% (inactive)
COCCNC(=O)Cn1cc(/C=C2\C(=O)NC(=O)N(c3cccc(C)c3C)C2=O)c2ccccc21	-12.7% (inactive)
O=C(OCCN1C(=O)c2cccc3c(N4CCOCC4)ccc(c23)C1=O)c1ccc(Cl)cc1	-11.7% (inactive)
CC(C)CC(=O)Nc1ccc(S(=O)(=O)N2CC3CC(C2)c2cccc(=O)n2C3)cc1 (stereo not drawn)	1.91% (inactive)
COc1ccc(N(C(=O)c2ccc(Cl)cc2)C2=CC3CCC(C2)N3C)cc1 (stereo not drawn)	-1.73% (inactive)
COc1ccc(C)cc1NC(=O)C(OC(=O)c1cnccn1)c1ccccc1 (stereo not drawn)	-9.07% (inactive)
Clc1ccc(-c2nnc3sc(-c4ccc(Br)o4)nn23)cc1	-3.6% (inactive)
Cc1ccc(NC(=O)CN2C(=O)N/C(=C/c3cccn3-c3ccc(C(=O)O)cc3)C2=O)cc1	-4.45% (inactive)

Compound	activity change, negative = cytotoxicity
COC(=O)Cn1c(=NC(=O)c2sc3ccccc3c2Cl)sc2cc(S(N)(=O)=O)ccc21	-2.51% (inactive)
Cc1cc(C)n(CCC(=O)N/N=C/c2ccc(O)cc2O)n1	-6.35% (inactive)
CCCOc1ccc(C=Nc2ccc(OC)c(S(=O)(=O)N3CCOCC3)c2)c(O)c1	19% (inactive)
CSC(=NS(=O)(=O)c1ccc(N)cc1)NS(=O)(=O)c1cccs1	-2.85% (inactive)
N#CC1=C(N)Oc2ccc3ccc(O)cc3c2C1c1ccsc1 (stereo not drawn)	5.49% (inactive)
CN(c1ccc(OCC(=O)OCC(=O)c2c(N)n(C)c(=O)n(C)c2=O)cc1)S(=O)(=O)c1ccc2ccccc2c1	3.95% (inactive)
Oc1ccc(-c2nc3ccccn3c2NCc2ccco2)cc1	-4.28% (inactive)
O=C(O)/C=C/C(=O)Nc1ccc(Cc2ccc(NC(=O)/C=C/C(=O)O)cc2)cc1	6.62% (inactive)
Nc1c(/C=C2/C=CC(=O)C(O)=C2)c(=O)nc2sc(CC(=O)N3CCCC3)nn12	-5.49% (inactive)
CCOC(=O)[C@H]1[C@H]2COc3cc(OC)ccc3[C@@H]2N2C(=O)CN(Cc3ccc(OC)cc3)C(=O)[C@@]12C	-9.01% (inactive)
O=C(NC1(O)C(=O)c2ccccc2C1=O)c1c(Cl)cccc1Cl	-4.52% (inactive)
O=c1cc2c(=O)oc3cc(O)c(O)oc3c2c(O)c1O	-7.01% (inactive)
CC(=O)O[C@@H]1[C@@H](OC(C)=O)[C@H](n2ccc3cc([N+](=O)[O-])ccc32)OC[C@@H]1OC(C)=O	-3.68% (inactive)
CC(C)(CS(=O)(=O)[O-])NC(=O)CC[N+](C)(C)CCO	2.35% (inactive)
CCOc1ccc(S(=O)(=O)N(C)c2ccc(OCC(=O)NC3=NCCS3)cc2)cc1	-12.3% (inactive)
CCOC(=O)C1Nc2ccc(C(=O)O)cc2C2C=CCC12 (stereo not drawn)	-9.32% (inactive)
CC(C)=C[C@@H]1C[C@H](C)[C@H]2CC[C@H](C)c3c(O[C@@H]4O[C@@H](C)[C@@H](O)[C@@H](O)[C@@H]4O)c(O)c(C)c1c32	-5.47% (inactive)
CC(C)CC(=O)Nc1nnc(CSCc2ccc(F)cc2)s1	-9.25% (inactive)
Cc1ccccc1C1=C/C(=C(\SS/C(C(=O)c2ccc(OCC(=O)O)c(Cl)c2Cl)=C2\C=C(c3ccccc3C)SS2)C(=O)c2ccc(OCC(=O)O)c(Cl)c2Cl)SS1	-8.33% (inactive)
Cc1ccc2c(c1)nnn2C1CCN(C(=O)c2cccs2)CC1	-7.39% (inactive)
Cc1ccc(C)c(N2CCN(C(=O)c3cc4ccccn4n3)CC2)c1	3.79% (inactive)

Compound	activity change, negative = cytotoxicity
Cc1c(Cl)cccc1NS(=O)(=O)c1ccc2c(c1)C1C=CCC1C(c1ccc(C(=O)O)cc1)N2 (stereo not drawn)	-10.8% (inactive)
Cc1cc2nc3c(=O)[nH]c(=S)[nH]c3nc2cc1NC(=O)C(F)(F)F	-3.95% (inactive)
O=[N+]([O-])c1cc(-n2cnnn2)ccc1N1CCC(Cc2ccccc2)CC1	-9.35% (inactive)
O=C(NCCCO)c1ccc2nc(-c3ccco3)c(-c3ccco3)nc2c1	-12.3% (inactive)
COC(=O)c1sc(C(F)(F)F)c(-c2ccccc2)c1S(=O)(=O)N1CCOCC1	-14.2% (inactive)
C=CC1=C(C(=O)O)N2C(=O)[C@@H](NC(=O)/C(=N/OCC(=O)O)c3csc(N)n3)[C@H]2SC1	-13.9% (inactive)
Cc1cc[n+](-c2[nH]c(=O)sc2/C=N/N=C(\[O-])c2ccccc2)cc1C	-3.68% (inactive)
COc1cccc(OCCCn2cc(/C=C3/C(=N)N4C=C(C)SC4=NC3=O)c3ccccc32)c1	-7.08% (inactive)
O=c1[nH][nH]cc1C=Nc1ccc(Cl)cc1Cl	-7.34% (inactive)
COc1ccc(/C=N/NC(=O)c2ccc3nc[nH]c3c2)c(OC)c1	3.07% (inactive)
O=C1C(=Cc2ccco2)CCC1=Cc1ccco1	-6.04% (inactive)
Cc1oc2cc(O)ccc2c(=O)c1-c1nncn1-c1ccccc1	3.87% (inactive)
O=C(NCc1cccnc1)C(=O)C1C(=O)Nc2ccccc21 (stereo not drawn)	-6.53% (inactive)
Cc1cccc(N2C(=O)c3cccc4c(N)ccc(c34)C2=O)c1	3.39% (inactive)
Cc1nnc(NC(=O)CN2C(=O)NC3(CCCC3)C2=O)s1	-0.18% (inactive)
COC(=O)C[n+]1cccc2ccccc21	-6.11% (inactive)
O=C(O)c1cccc(NC2=Nc3cccc4cccc2c34)c1	-4.32% (inactive)
O=S(=O)(NCc1cccnc1)c1ccc(Cl)s1	4.67% (inactive)
COc1ccc(-c2n[nH]c(=S)n2-c2ccc(C)cc2)cc1	4.29% (inactive)
O=S(=O)(O)c1cc(Cl)cc(N=Nc2ccc(O)cc2O)c1O	-12.1% (inactive)
Cn1c(Cl)c(C(=O)Nc2ccc(Cl)cc2)c2ccccc21	-6.51% (inactive)

Compound	activity change, negative = cytotoxicity
Cc1cc(C)nc(SCC(=O)N/N=C/c2cc(C)n(-c3ccccc3C)c2C)n1	-7.55% (inactive)
COC(=O)C1CCN(C(=O)COC(=O)Cc2c[nH]c3ccccc23)CC1	-20.6% (inactive)
Cc1ccc(-c2nnc(-c3ccc(NC(=O)c4ccco4)cc3)o2)cc1	-2.7% (inactive)
CN(C)c1ccc(/C=N/N(CCO)C2=NS(=O)(=O)c3ccccc32)cc1	-6.62% (inactive)
COc1ccc(C2(CNC(=O)CCC(=O)O)CCCC2)cc1OC	-16% (inactive)
COc1ccc(Br)cc1CNC(=O)CCCc1cn(C)c2ccccc12	-12.1% (inactive)
O=C(COc1ccccc1Cc1ccccc1)NCCCN1CCOCC1	-9.39% (inactive)
CCc1ccc(C2CC(c3cccc(Cl)c3)n3nc(N)nc3N2)cc1 (stereo not drawn)	-1.95% (inactive)
COC(=O)c1c(C)oc2ccc(N(C(C)=O)S(=O)(=O)c3ccccc3)cc12	1.25% (inactive)
Cc1cccc(NC(=O)CN2C(=O)NC(C)(c3ccc4ccccc4c3)C2=O)n1 (stereo not drawn)	-4.54% (inactive)
O=C(CN1CCN(C(=O)CNC(=O)c2ccc3c(c2)OCO3)CC1)Nc1ccc(F)cc1	-9.87% (inactive)
CN(C)/C=C1\C=C2C(=O)c3ccccc3N2C1=O	-8.99% (inactive)
c1ccc2[nH]c3cc4ncnc4cc3nc2c1	5.9% (inactive)
Cc1ccc(NC(=O)CN(C)C(=O)c2nn(C)c(=O)c3ccccc23)cc1	-13.7% (inactive)
Cc1sc2nnn(CC(=O)N3CCN(C(=O)c4ccco4)CC3)c(=O)c2c1C	-4.76% (inactive)
CCOc1ccccc1N1CCN(C(=O)c2ccc3nc(N)sc3c2)CC1	-19.1% (inactive)
Oc1ccc2nnc3c(Br)cnn3c2c1	-12.1% (inactive)
CC(C(=O)Nc1ccccc1)N1C(=O)c2ccccc2C1=O (stereo not drawn)	-8.7% (inactive)
Cn1c(=O)c(NCCO)c2c3c(cccc31)C(=O)c1ccccc1-2	-6.61% (inactive)
Cc1ccc(C(=O)c2coc3ccc(O)c(Cl)c23)cc1	-2.67% (inactive)
